Measured values published in ChEMBL document CHEMBL4028893, “Discovery and Optimization of Potent, Cell-Active Pyrazole-Based Inhibitors of Lactate Dehydrogenase (LDH)” (J Med Chem, 2017).
Activity calls are given as the source filed them. No cut-off for these calls is given here.

Tests used:
[1] = Inhibition of pig heart MDH using malic acid as substrate preincubated for 10 mins followed by substrate addition measured up to 5 mins by resorufin-based fluorescence assay; set-up: species or system Sus scrofa
[2] = Drug level in human A673 cells by LC-MS/MS analysis; assay type: ADME, cell-based
[3] = Drug level in human MIAPaCa2 cells by LC-MS/MS analysis; assay type: ADME, cell-based; settings: mia paca-2
[4] = target: Isocitrate dehydrogenase [NADP] cytoplasmic (Homo sapiens, UniProt O75874); test: Inhibition of wild type IDH1 (unknown origin) using isocitrate as substrate preincubated for 30 mins followed by substrate addition in presence of NADP+ measured up to 5 mins by resorufin-based fluorescence assay
A673 [5] = test: Cytotoxicity against human A673 cells after 48 hrs by CellTiter-Glo assay; settings: A673, 48 h
MIA PaCa-2 [6] = test: Cytotoxicity against human MIAPaCa2 cells after 48 hrs by CellTiter-Glo assay; settings: MIA PaCa-2, 48 h
[7] = target: T1, L-lactate dehydrogenase A chain (Homo sapiens, UniProt P00338)
Description: (§1) Inhibition of human liver LDHA using sodium pyruvate as substrate after 5 mins in presence of NAPDH and in absence of EDTA by diaphorase/resazurin based fluorescence assay

[8] = target: T1, L-lactate dehydrogenase A chain; remark: listed apart in the source
Description: Inhibition of human liver LDHA using sodium pyruvate as substrate after 5 mins in presence of NAPDH and EDTA by diaphorase/resazurin based fluorescence assay

A673 [9] = test: Cytotoxicity against human A673 cells assessed as long term cell growth inhibition measured every 4 hrs for 120 hrs by incucyte zoom live cell analysis; assay type: functional, cell-based
[10] = target: L-lactate dehydrogenase B chain (Homo sapiens, UniProt P07195); test: Inhibition of human erythrocytes LDHB using sodium pyruvate as substrate after 5 mins in presence of […] by diaphorase/resazurin based fluorescence assay
MIA PaCa-2 [11] = test: Cytotoxicity against human MIAPaCa2 cells assessed as long term cell growth inhibition measured every 4 hrs for 120 hrs by incucyte zoom live cell analysis; assay type: functional, cell-based
[12] = target: T1, L-lactate dehydrogenase A chain; remark: listed apart in the source
Liver [13] = test: Drug metabolism in human liver microsomes assessed as glucuronidated metabolite formation measured over 90 mins in presence of NADPH/UDPGA; assay type: ADME, microsome
Mus musculus [14] = test: Volume of distribution at steady state in CD1 mouse plasma at 2 mg/kg, iv measured over 24 hrs post dose by LC/MS/MS analysis; assay type: ADME, organism-based; settings: in vivo
Mus musculus [15] = test: Clearance in CD1 mouse plasma at 2 mg/kg, iv measured over 24 hrs post dose by LC/MS/MS analysis; assay type: ADME, organism-based; settings: in vivo
Mus musculus [16] = test: AUClast in CD1 mouse plasma at 50 mg/kg, po measured over 24 hrs post dose by LC/MS/MS analysis; assay type: ADME, organism-based; set-up: dose 50 mg/kg, time 0 - last, route oral; settings: in vivo
Liver [17] = test: Drug metabolism in mouse liver microsomes assessed as glucuronidated metabolite formation measured over 90 mins in presence of NADPH/UDPGA; assay type: ADME, microsome
Mus musculus [18] = test: AUClast in CD1 mouse plasma at 2 mg/kg, iv measured over 24 hrs post dose by LC/MS/MS analysis; assay type: ADME, organism-based; set-up: dose 2 mg/kg, time 0 - last, route intravenous; settings: in vivo
Mus musculus [19] = test: Cmax in CD1 mouse plasma at 50 mg/kg, po measured over 24 hrs post dose by LC/MS/MS analysis; assay type: ADME, organism-based; set-up: dose 50 mg/kg, route oral; settings: in vivo
Mus musculus [20] = test: Oral bioavailability in CD1 mouse plasma at 50 mg/kg measured over 24 hrs post dose by LC/MS/MS analysis; assay type: ADME, organism-based; settings: in vivo
L-lactate dehydrogenase [21] = target: T2, L-lactate dehydrogenase (Homo sapiens, UniProt V9HWB9); test: Inhibition of LDH in human MIAPaCa2 cells assessed as reduction in lactate production preincubated for 2 hrs measured after 30 mins by high throughput fluorescence assay; assay type: cell-based
L-lactate dehydrogenase [22] = target: T2, L-lactate dehydrogenase; test: Inhibition of LDH in human A673 cells assessed as reduction in lactate production preincubated for 2 hrs measured after 30 mins by high throughput fluorescence assay; assay type: cell-based
[23] = target: T1, L-lactate dehydrogenase A chain; remark: listed apart in the source
Description: as §1

Chain of Isocitrate dehydrogenase [NADP] cytoplasmic (O75874 whole entry): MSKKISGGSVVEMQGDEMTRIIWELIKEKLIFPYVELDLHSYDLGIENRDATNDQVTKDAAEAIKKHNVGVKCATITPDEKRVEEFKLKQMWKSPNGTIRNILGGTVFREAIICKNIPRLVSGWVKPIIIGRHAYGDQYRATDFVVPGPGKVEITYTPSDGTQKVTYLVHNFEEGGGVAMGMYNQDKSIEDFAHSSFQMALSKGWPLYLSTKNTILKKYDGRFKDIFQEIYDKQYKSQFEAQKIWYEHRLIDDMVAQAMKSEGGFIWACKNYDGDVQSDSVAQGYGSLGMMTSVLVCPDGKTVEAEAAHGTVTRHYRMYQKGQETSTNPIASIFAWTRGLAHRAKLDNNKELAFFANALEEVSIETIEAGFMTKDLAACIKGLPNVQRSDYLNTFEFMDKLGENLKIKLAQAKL
Chain of L-lactate dehydrogenase B chain (P07195 whole entry): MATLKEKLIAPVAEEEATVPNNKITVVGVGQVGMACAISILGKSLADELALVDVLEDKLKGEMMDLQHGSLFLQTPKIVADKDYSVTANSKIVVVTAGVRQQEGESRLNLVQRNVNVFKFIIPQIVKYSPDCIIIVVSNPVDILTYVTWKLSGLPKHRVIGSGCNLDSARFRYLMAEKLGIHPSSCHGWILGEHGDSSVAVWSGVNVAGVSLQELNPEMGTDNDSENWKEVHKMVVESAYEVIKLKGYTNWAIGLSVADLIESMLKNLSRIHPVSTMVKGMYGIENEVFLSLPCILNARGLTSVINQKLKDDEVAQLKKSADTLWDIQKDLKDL

Row | Structure (SMILES) | IC50 [1] [µM] | Drug uptake [2] | Drug uptake [3] | IC50 [4] [µM] | IC50 [7] [µM] | IC50 [8] [µM] | inhibition (L-lactate dehydrogenase [21]) | inhibition (L-lactate dehydrogenase [22]) | further results
1 | NS(=O)(=O)c1ccc(Cc2c(-c3ccccc3)nn(-c3nc(C(=O)O)cs3)c2CC2CC2)cc1 | > 57 | Active | Active | 47.4 |  |  |  |  | 
2 | NS(=O)(=O)c1ccc(Cc2c(-c3ccc(F)c(F)c3)nn(-c3nc(C(=O)O)cs3)c2O)cc1 | > 57 | Active | Active | > 57 |  |  |  |  | IC50 (A673 [5]): > 57 µM; IC50 (MIA PaCa-2 [6]): > 57 µM
3 | NS(=O)(=O)c1ccc(Cc2cn(-c3nc(C(=O)O)cs3)nc2-c2ccccc2)cc1 | > 57 | Active | Active | > 57 | 0.177 | 0.176 |  |  | 
4 | O=C1N[C@](c2ccc(N3CCOCC3)cc2)(c2ccsc2)CC(O)=C1Sc1ccccc1Cl | > 57 | Active | Active | > 57 |  |  |  |  | 
5 | NS(=O)(=O)c1ccc(Nc2cn(-c3nc(C(=O)O)cs3)nc2-c2cccc(-c3ccccc3)c2)cc1 | 37.8 | Active | Active | > 57 |  |  |  |  | 
6 | NS(=O)(=O)c1ccc(Cc2cn(-c3nc(C(=O)O)cs3)nc2-c2cccc(-c3ccccc3)c2)cc1 | 48.6 | Active | Active | 47.4 |  |  |  |  | 
7 | Cc1nc2ccc(NC(=O)CCNC(=O)CCCc3ccc(CC(C(=O)O)C(=O)O)cc3)cc2s1 | > 57 | Active | Active | > 57 |  | 1.34 |  |  | IC50 (A673 [9]): > 20 µM; IC50 [10]: 9.2 µM; IC50 (MIA PaCa-2 [11]): > 20 µM; EC50 [12]: 1.6 µM
8 | NS(=O)(=O)c1ccc(Cc2c(-c3ccccc3)nn(-c3nc(C(=O)O)cs3)c2-c2cccnc2)cc1 | > 57 | Active | Active | > 57 |  |  |  |  | 
9 | Nc1c(Cc2ccc(S(N)(=O)=O)cc2)c(-c2cccc(-c3ccccc3)c2)nn1-c1nc(C(=O)O)cs1 | 26.8 | Active | Active | > 57 |  |  |  |  | 
10 | NS(=O)(=O)c1ccc(Cc2c(-c3cccc(-c4ccccc4)c3)nn(-c3nc(C(=O)O)cs3)c2C(F)(F)F)cc1 | 48.6 | Active | Active | 33.5 |  |  |  |  | 
11 | NS(=O)(=O)c1ccc(Cc2c(-c3cccc(-c4ccccc4)c3)nn(-c3nc(C(=O)O)cs3)c2C2CC2)cc1 | 42.4 | Active | Active | 33.5 |  |  |  |  | Drug metabolism (Liver [13]): Metabolite_Notdetected; Vdss (Mus musculus [14]): 5.6 L/kg; CL (Mus musculus [15]): 227 L/h/kg; AUClast (Mus musculus [16]): 3.2 µM·h; Drug metabolism (Liver [17]): Metabolite_Notdetected; AUClast (Mus musculus [18]): 0.26 µM·h; Cmax (Mus musculus [19]): 1200 nM; F (Mus musculus [20]): 49%
12 | NS(=O)(=O)c1ccc(Cc2c(-c3cccc(Br)c3)nn(-c3nc(C(=O)O)cs3)c2O)cc1 |  | Active | Active | > 57 |  |  |  |  | IC50 [10]: 1.51 µM
13 | CC(C)c1cc(-c2ccccc2)nn1-c1nc(C(=O)O)cs1 |  |  |  |  | > 57 | > 57 | inactive | inactive | 
14 | Nc1cc(-c2ccccc2)nn1-c1nc(C(=O)O)cs1 |  |  |  |  | 26.7 | > 57 | inactive | inactive | 
15 | NS(=O)(=O)c1ccc(Cc2c(-c3cccc(-c4ccccc4)c3)nn(-c3nc(C(=O)O)cs3)c2O)cc1 | > 57 | Active | Active | 47.4 |  |  |  |  | 
16 | CC(=O)Nc1cc(-c2ccccc2)nn1-c1nc(C(=O)O)cs1 |  |  |  |  | 9.57 | > 57 | inactive | inactive | 
17 | O=C(O)c1csc(-n2nc(-c3cccc(OC(F)(F)F)c3)cc2O)n1 |  |  |  |  | 0.299 | > 57 | inactive | inactive | 
18 | NS(=O)(=O)c1ccc(Oc2c(-c3cccc(-c4ccccc4)c3)nn(-c3nc(C(=O)O)cs3)c2C2CC2)cc1 | > 57 | Active | Active |  |  |  |  |  | 
19 | O=C(O)c1csc(-n2nc(-c3ccc(Cl)cc3)cc2C(F)(F)F)n1 |  |  |  |  | 26.6 | 27.7 | inactive | inactive | 

Row | Structure (SMILES) | IC50 [1] [µM] | Drug uptake [2] | Drug uptake [3] | IC50 [4] [µM] | IC50 [7] [µM] | IC50 [8] [µM] | inhibition (L-lactate dehydrogenase [21]) | inhibition (L-lactate dehydrogenase [22]) | further results
20 | O=C(O)c1csc(-n2nc(-c3ccccc3F)cc2O)n1 |  |  |  |  | 0.134 | > 57 | inactive | inactive | 
21 | O=C(O)c1csc(-n2nc(C3CCCCC3)cc2O)n1 |  |  |  |  | 1.1 | > 57 | inactive | inactive | 
22 | O=C(O)c1csc(-n2nc(-c3ccncc3)cc2O)n1 |  |  |  |  | 0.669 | > 57 | inactive | inactive | 
23 | O=C(O)c1csc(-n2nc(-c3ccccc3)cc2C(F)F)n1 |  |  |  |  | > 57 | > 57 | inactive | inactive | 
24 | O=C(O)c1csc(-n2nc(-c3ccc(Cl)c(Cl)c3)cc2O)n1 |  |  |  |  | 0.106 | > 57 | inactive | inactive | 
25 | NS(=O)(=O)c1ccc(Cc2c(-c3cccc(-c4ccccc4F)c3)nn(-c3nc(C(=O)O)cs3)c2O)cc1 |  | Active | Active | > 57 |  |  |  |  | 
26 | O=C(O)c1csc(-n2nc(-c3cccc(F)c3)cc2O)n1 |  |  |  |  | 0.162 | > 57 | inactive | inactive | 
27 | NS(=O)(=O)c1ccc(Cc2cn(-c3nc(C(=O)O)cs3)nc2-c2ccc(F)c(F)c2)cc1 | > 57 | Active | Active | > 57 | 0.095 | 0.095 |  |  | IC50 (A673 [5]): > 57 µM; IC50 [10]: 0.129 µM
28 | COc1ncc(-c2ccc3c(Nc4cc(Oc5cc(F)cc(F)c5)cc(C(=O)O)c4)c(S(=O)(=O)NC4CC4)cnc3c2)c(OC)n1 | 37.8 | Active | Active | > 57 |  |  |  |  | IC50 (A673 [5]): > 57 µM; IC50 (MIA PaCa-2 [6]): 28.4 µM; IC50 (A673 [9]): 0.84 µM; IC50 (L-lactate dehydrogenase [21]): 12.6 µM; IC50 (L-lactate dehydrogenase [22]): 14.5 µM; IC50 (MIA PaCa-2 [11]): 1.37 µM
29 | O=C(O)c1csc(-n2nc(-c3ccccc3Cl)cc2C(F)(F)F)n1 |  |  |  |  | > 57 | > 57 | inactive | inactive | 
30 | NS(=O)(=O)c1ccc(Cc2c(-c3ccccc3)nn(-c3nc(C(=O)O)cs3)c2-c2ccncc2)cc1 | > 57 | Active | Active | > 57 | 6.23 | 6.23 |  |  | IC50 [10]: 2.82 µM
31 | COc1ccc(-c2cc(O)n(-c3nc(C(=O)O)cs3)n2)cc1 |  |  |  |  | 0.229 | > 57 | inactive | inactive | 
32 | O=C(O)c1csc(-n2nc(-c3ccccc3)cc2O)n1 |  |  |  |  | 0.144 | > 57 | inactive | inactive | 
33 | O=C(O)c1csc(-n2nc(-c3cccc(Cl)c3)cc2C(F)(F)F)n1 |  |  |  |  | > 57 | > 57 | inactive | inactive | 
34 | NS(=O)(=O)c1ccc(Nc2cn(-c3nc(C(=O)O)cs3)nc2-c2ccccc2)cc1 | > 57 | Active | Active | > 57 |  |  |  |  | 
35 | NS(=O)(=O)c1ccc(Cc2c(-c3ccccc3)nn(-c3nc(C(=O)O)cs3)c2C2CC2)cc1 | 37.8 | Active | Active | > 57 |  |  |  |  | 
36 | O=C(O)c1csc(-n2nc(-c3ccccc3)cc2C(F)(F)F)n1 |  |  |  |  | 22.2 | 28.8 | inactive | inactive | Efficacy [23]: 40 to 60%; EC50 [12]: > 100 µM
37 | O=C(O)c1csc(-n2nc(-c3cccc(-c4ccccc4F)c3)cc2O)n1 |  |  |  |  | 0.095 | > 57 | inactive | inactive | 
